Measured values reported in ChEMBL document CHEMBL4339185 (Eur J Med Chem, 2019).
≈ marks a conversion by molar mass, not a printed value.

Assays:
[1] = tested on: Staphylococcus epidermidis; experiment: Antimicrobial activity against Staphylococcus epidermidis ATCC 49134 incubated for 18 hrs by serial microdilution method; type: functional; settings: ATCC 49134, 18 h
[2] = Solubility of the compound in water at pH 7 by UV-vis spectrophotometric analysis; type: physicochemical
[3] = tested on: Enterococcus faecalis; experiment: Antimicrobial activity against Enterococcus faecalis ATCC 29212 incubated for 18 hrs by serial microdilution method; type: functional; settings: ATCC 29212, 18 h
[4] = tested on: Staphylococcus aureus; experiment: Antimicrobial activity against methicillin-resistant Staphylococcus aureus incubated for 18 hrs by serial microdilution method; type: functional
[5] = Lipophilicity, log P of the compound in octanol and water incubated for 1 h under shaking condition; type: physicochemical
[6] = tested on: Staphylococcus aureus; experiment: Antimicrobial activity against MLSB-resistant Staphylococcus aureus incubated for 18 hrs by serial microdilution method; type: functional
[7] = tested on: Staphylococcus epidermidis; experiment: Antimicrobial activity against Staphylococcus epidermidis ATCC 12228 incubated for 18 hrs by serial microdilution method; type: functional; settings: ATCC 12228, 18 h
[8] = tested on: Escherichia coli; experiment: Antimicrobial activity against Escherichia coli ATCC 25922 incubated for 18 hrs by serial microdilution method; type: functional; settings: ATCC 25922, 18 h
[9] = tested on: Staphylococcus aureus; experiment: Antimicrobial activity against Staphylococcus aureus ATCC 6538 incubated for 18 hrs by serial microdilution method; type: functional; settings: ATCC 6538, 18 h

SMILES	MIC [1] [µg/mL]	solubility [2] [µg/mL]	MIC [3] [µg/mL]	MIC [4] [µg/mL]	logP at 1 h [5]	MIC [6] [µg/mL]	MIC [7] [µg/mL]	MIC [8] [µg/mL]	MIC [9] [µg/mL]
CO[C@H]1/C=C/O[C@@]2(C)Oc3c(C)c(O)c4c(O)c(c(/C=N/NCc5ccccc5)c(O)c4c3C2=O)NC(=O)/C(C)=C\C=C\[C@H](C)[C@H](O)[C@@H](C)[C@@H](O)[C@@H](C)[C@H](OC(C)=O)[C@@H]1C	0.25 (≈ 0.301 µM)	< 50	> 8	1 (≈ 1.2 µM)	2.34	0.5 (≈ 0.602 µM)	0.25 (≈ 0.301 µM)	> 8	0.5 (≈ 0.602 µM)
CO[C@H]1/C=C/O[C@@]2(C)Oc3c(C)c(O)c4c(O)c(c(CNCCN5CCCC5=O)c(O)c4c3C2=O)NC(=O)/C(C)=C\C=C\[C@H](C)[C@H](O)[C@@H](C)[C@@H](O)[C@@H](C)[C@H](OC(C)=O)[C@@H]1C	1 (≈ 1.19 µM)	100 (≈ 119 µM)	> 8	2 (≈ 2.39 µM)	1.24	4 (≈ 4.77 µM)	2 (≈ 2.39 µM)	> 8	2 (≈ 2.39 µM)
CO[C@H]1/C=C/O[C@@]2(C)Oc3c(C)c(O)c4c(O)c(c(/C=N/Nc5ccccc5)c(O)c4c3C2=O)NC(=O)/C(C)=C\C=C\[C@H](C)[C@H](O)[C@@H](C)[C@@H](O)[C@@H](C)[C@H](OC(C)=O)[C@@H]1C	0.25 (≈ 0.306 µM)	< 50	> 8	0.5 (≈ 0.613 µM)	2.75	1 (≈ 1.23 µM)	0.5 (≈ 0.613 µM)	> 8	0.5 (≈ 0.613 µM)
CO[C@H]1/C=C/O[C@@]2(C)Oc3c(C)c(O)c4c(O)c(c(CN5CCC(N(C)C)CC5)c(O)c4c3C2=O)NC(=O)/C(C)=C\C=C\[C@H](C)[C@H](O)[C@@H](C)[C@@H](O)[C@@H](C)[C@H](OC(C)=O)[C@@H]1C	0.125 (≈ 0.149 µM)	1870 (≈ 2230 µM)	8 (≈ 9.55 µM)	0.25 (≈ 0.298 µM)	1.23	0.125 (≈ 0.149 µM)	0.125 (≈ 0.149 µM)	> 8	0.25 (≈ 0.298 µM)
CO[C@H]1/C=C/O[C@@]2(C)Oc3c(C)c(O)c4c(O)c(c(CNCC(=O)N5CCCCC5)c(O)c4c3C2=O)NC(=O)/C(C)=C\C=C\[C@H](C)[C@H](O)[C@@H](C)[C@@H](O)[C@@H](C)[C@H](OC(C)=O)[C@@H]1C	0.25 (≈ 0.293 µM)	120 (≈ 141 µM)	> 8	1 (≈ 1.17 µM)	1.35	1 (≈ 1.17 µM)	0.5 (≈ 0.587 µM)	> 8	1 (≈ 1.17 µM)
CO[C@H]1/C=C/O[C@@]2(C)Oc3c(C)c(O)c4c(O)c(c(/C=N/NC(C)(C)C)c(O)c4c3C2=O)NC(=O)/C(C)=C\C=C\[C@H](C)[C@H](O)[C@@H](C)[C@@H](O)[C@@H](C)[C@H](OC(C)=O)[C@@H]1C	0.5 (≈ 0.628 µM)	< 50	8 (≈ 10.1 µM)	1 (≈ 1.26 µM)	2.43	2 (≈ 2.51 µM)	1 (≈ 1.26 µM)	> 8	1 (≈ 1.26 µM)
CO[C@H]1/C=C/O[C@@]2(C)Oc3c(C)c(O)c4c(O)c(c(CNC5CCCC(C(N)=O)C5)c(O)c4c3C2=O)NC(=O)/C(C)=C\C=C\[C@H](C)[C@H](O)[C@@H](C)[C@@H](O)[C@@H](C)[C@H](OC(C)=O)[C@@H]1C (stereo partly drawn)	0.25 (≈ 0.293 µM)	150 (≈ 176 µM)	> 8	0.5 (≈ 0.587 µM)	1.33	0.25 (≈ 0.293 µM)	0.25 (≈ 0.293 µM)	> 8	0.5 (≈ 0.587 µM)
CO[C@H]1/C=C/O[C@@]2(C)Oc3c(C)c(O)c4c(O)c(c(CN5CCN(C(c6ccc(F)cc6)c6ccc(F)cc6)CC5)c(O)c4c3C2=O)NC(=O)/C(C)=C\C=C\[C@H](C)[C@H](O)[C@@H](C)[C@@H](O)[C@@H](C)[C@H](OC(C)=O)[C@@H]1C	2 (≈ 2 µM)	< 50	> 8	4 (≈ 4.01 µM)	2.34	8 (≈ 8.01 µM)	4 (≈ 4.01 µM)	> 8	4 (≈ 4.01 µM)
CO[C@H]1/C=C/O[C@@]2(C)Oc3c(C)c(O)c4c(O)c(c(CNC5CCN(C(=O)OC(C)(C)C)CC5)c(O)c4c3C2=O)NC(=O)/C(C)=C\C=C\[C@H](C)[C@H](O)[C@@H](C)[C@@H](O)[C@@H](C)[C@H](OC(C)=O)[C@@H]1C	0.25 (≈ 0.275 µM)	< 50	4 (≈ 4.4 µM)	0.5 (≈ 0.549 µM)	2.8	0.5 (≈ 0.549 µM)	0.25 (≈ 0.275 µM)	> 8	0.5 (≈ 0.549 µM)
CO[C@H]1/C=C/O[C@@]2(C)Oc3c(C)c(O)c4c(O)c(c(/C=N/N5CCCCCC5)c(O)c4c3C2=O)NC(=O)/C(C)=C\C=C\[C@H](C)[C@H](O)[C@@H](C)[C@@H](O)[C@@H](C)[C@H](OC(C)=O)[C@@H]1C	0.0312 (≈ 0.038 µM)	< 300	0.5 (≈ 0.608 µM)	0.0625 (≈ 0.076 µM)	3.43	0.5 (≈ 0.608 µM)	0.0312 (≈ 0.038 µM)	> 8	0.0625 (≈ 0.076 µM)
CO[C@H]1/C=C/O[C@@]2(C)Oc3c(C)c(O)c4c(O)c(c(/C=N/N5CCCC5)c(O)c4c3C2=O)NC(=O)/C(C)=C\C=C\[C@H](C)[C@H](O)[C@@H](C)[C@@H](O)[C@@H](C)[C@H](OC(C)=O)[C@@H]1C	0.25 (≈ 0.315 µM)	< 300	4 (≈ 5.04 µM)	0.25 (≈ 0.315 µM)	3.13	0.5 (≈ 0.63 µM)	0.25 (≈ 0.315 µM)	> 8	0.25 (≈ 0.315 µM)
CO[C@H]1/C=C/O[C@@]2(C)Oc3c(C)c(O)c4c(O)c(c(CNC5CCN(CC(=O)O)CC5)c(O)c4c3C2=O)NC(=O)/C(C)=C\C=C\[C@H](C)[C@H](O)[C@@H](C)[C@@H](O)[C@@H](C)[C@H](OC(C)=O)[C@@H]1C	0.0625 (≈ 0.072 µM)	> 100000	> 8	0.25 (≈ 0.288 µM)	-1.5	0.5 (≈ 0.576 µM)	0.0625 (≈ 0.072 µM)	> 8	0.25 (≈ 0.288 µM)
CO[C@H]1/C=C/O[C@@]2(C)Oc3c(C)c(O)c4c(O)c(c(CNC5CCN(S(C)(=O)=O)CC5)c(O)c4c3C2=O)NC(=O)/C(C)=C\C=C\[C@H](C)[C@H](O)[C@@H](C)[C@@H](O)[C@@H](C)[C@H](OC(C)=O)[C@@H]1C	0.25 (≈ 0.282 µM)	< 50	> 8	1 (≈ 1.13 µM)	2.34	0.5 (≈ 0.563 µM)	0.5 (≈ 0.563 µM)	> 8	1 (≈ 1.13 µM)
CCS(=O)(=O)N1CCN(Cc2c3c(O)c4c(O)c(C)c5c(c4c2O)C(=O)[C@@](C)(O/C=C/[C@H](OC)[C@@H](C)[C@@H](OC(C)=O)[C@H](C)[C@H](O)[C@H](C)[C@@H](O)[C@@H](C)/C=C/C=C(/C)C(=O)N3)O5)CC1	0.25 (≈ 0.282 µM)	1730 (≈ 1950 µM)	> 8	0.5 (≈ 0.563 µM)	1.41	0.5 (≈ 0.563 µM)	0.25 (≈ 0.282 µM)	> 8	0.5 (≈ 0.563 µM)
CO[C@H]1/C=C/O[C@@]2(C)Oc3c(C)c(O)c4c(O)c(c(/C=N/Nc5ccnc6cc(Cl)ccc56)c(O)c4c3C2=O)NC(=O)/C(C)=C\C=C\[C@H](C)[C@H](O)[C@@H](C)[C@@H](O)[C@@H](C)[C@H](OC(C)=O)[C@@H]1C	0.125 (≈ 0.139 µM)	< 300	8 (≈ 8.87 µM)	0.25 (≈ 0.277 µM)	2.1	0.125 (≈ 0.139 µM)	0.125 (≈ 0.139 µM)	> 8	0.25 (≈ 0.277 µM)
CO[C@H]1/C=C/O[C@@]2(C)Oc3c(C)c(O)c4c(O)c(c(/C=N/NC5CCCCC5)c(O)c4c3C2=O)NC(=O)/C(C)=C\C=C\[C@H](C)[C@H](O)[C@@H](C)[C@@H](O)[C@@H](C)[C@H](OC(C)=O)[C@@H]1C	0.25 (≈ 0.304 µM)	< 50	1 (≈ 1.22 µM)	0.5 (≈ 0.608 µM)	2.1	0.5 (≈ 0.608 µM)	0.25 (≈ 0.304 µM)	> 8	0.5 (≈ 0.608 µM)
CO[C@H]1/C=C/O[C@@]2(C)Oc3c(C)c(O)c4c(O)c(c(CN5CCC6(CC5)NCCc5ccccc56)c(O)c4c3C2=O)NC(=O)/C(C)=C\C=C\[C@H](C)[C@H](O)[C@@H](C)[C@@H](O)[C@@H](C)[C@H](OC(C)=O)[C@@H]1C	2 (≈ 2.19 µM)	< 50	4 (≈ 4.39 µM)	8 (≈ 8.77 µM)	2.09	8 (≈ 8.77 µM)	2 (≈ 2.19 µM)	> 8	8 (≈ 8.77 µM)
CO[C@H]1/C=C/O[C@@]2(C)Oc3c(C)c(O)c4c(O)c(c(/C=N/N5CCCCC5)c(O)c4c3C2=O)NC(=O)/C(C)=C\C=C\[C@H](C)[C@H](O)[C@@H](C)[C@@H](O)[C@@H](C)[C@H](OC(C)=O)[C@@H]1C	0.0312 (≈ 0.0387 µM)	< 300	0.5 (≈ 0.619 µM)	0.0156 (≈ 0.0193 µM)	3.27	0.5 (≈ 0.619 µM)	0.0156 (≈ 0.0193 µM)	> 8	0.0156 (≈ 0.0193 µM)
CO[C@H]1/C=C/O[C@@]2(C)Oc3c(C)c(O)c4c(O)c(c(C=O)c(O)c4c3C2=O)NC(=O)/C(C)=C\C=C\[C@H](C)[C@H](O)[C@@H](C)[C@@H](O)[C@@H](C)[C@H](OC(C)=O)[C@@H]1C	2 (≈ 2.76 µM)		> 8	4 (≈ 5.51 µM)		2 (≈ 2.76 µM)	2 (≈ 2.76 µM)	> 8	2 (≈ 2.76 µM)
CO[C@H]1/C=C/O[C@@]2(C)Oc3c(C)c(O)c4c(O)c(c5c(nc6cc(C)ccn65)c4c3C2=O)NC(=O)/C(C)=C\C=C\[C@H](C)[C@H](O)[C@@H](C)[C@@H](O)[C@@H](C)[C@H](OC(C)=O)[C@@H]1C [RIFAXIMIN]	0.0312 (≈ 0.0398 µM)		8 (≈ 10.2 µM)	0.0625 (≈ 0.0795 µM)		0.125 (≈ 0.159 µM)	0.0312 (≈ 0.0398 µM)	> 8	0.0625 (≈ 0.0795 µM)
CO[C@H]1/C=C/O[C@@]2(C)Oc3c(C)c(O)c4c(O)c(c(/C=N/N5CCN(C)CC5)c(O)c4c3C2=O)NC(=O)/C(C)=C\C=C\[C@H](C)[C@H](O)[C@@H](C)[C@@H](O)[C@@H](C)[C@H](OC(C)=O)[C@@H]1C [RIFAMPIN]	0.0156 (≈ 0.019 µM)		8 (≈ 9.72 µM)	0.0156 (≈ 0.019 µM)		0.0312 (≈ 0.038 µM)	0.0156 (≈ 0.019 µM)	> 8	0.0156 (≈ 0.019 µM)
